We go through 3 compounds from patent publication EP3495372B1 (priority 2017, dated 2019).

Data set [1] concerns differentiated SH-SY5Y cells. Description: Apoptosis detection by Hoechst 33258 staining. Format: cell-based, human. The conditions noted are these: 25 and 50 µM co-treatment, 20 µM Aβ1-42, 24 h. The procedure: Apoptosis detection by Hoechst 33258 staining: Hoechst 33258 staining was used to detect apoptotic nuclei. […] Then, cells fixed with 4% paraformaldehyde in phosphate buffered saline at 4 °C for 30 min. After washing cells with PBS, the nuclear DNAs were incubated with […] Hoechst 33258 fluorescent dye for 5 min at room temperature. Cells were observed and photographed under a fluorescence microscopy (Leica® DM IL LED).

In data set [2] the test system is cultured human lymphocytes. Description: SCE assay (genotoxicity). Format: cell-based. The procedure: (§1) All volunteers have signed informed consent.
SCE assay: to provide successive visualization of SCEs, 5-bromo-2-deoxyuridine was added at culture cells. Exactly 70 h and 30 min after beginning of the incubations, demecolcine ([…]) was added to the cultures. After hypotonic treatment (0.075 M KCl), followed by three repetitive cycles of fixation in methanol/acetic acid solution (3:1, v/v), centrifugation and re-suspension, the cell suspension was dropped onto chilled, grease-free microscopic slides, air-dried, aged for three days, and then differentially stained for the inspection of the SCE rate according to the fluorescence plus Giemsa (FPG) procedure. For each treatment condition, well-spread twenty-five second division metaphases containing 42-46 chromosomes per cell were scored and the values obtained were calculated as SCEs per cell.
The frequencies of sister chromatid exchanges (SCEs) with increasing BLA concentrations were investigated in cultured human lymphocytes.

Data set [3] has as its system SHSY-5Y human neuroblastoma cell line. Description: Antitumor activity, MTT and LDH assays. The conditions noted are these: dose-dependent. Format: cell-based. How it is done:
(§2) Cytotechnol. 2015; 67:299-309.
Antitumor activity of BLA and MEM was tested on SHSY-5Y human neuroblastoma cell line using MTT and LDH assays. Cells were grown to near-confluency before treatment. Growth of the cell line was inhibited by both drug application in a dose-dependent manner.
On the technique in general: Tetrazolium dyes change colour on reduction, which living cells bring about.

Data set [4] addresses T1, acetylcholinesterase (AChE) (Homo sapiens, UniProt P22303).
T1 construct: endogenous in cells
Description: AChE activity in cellular model of Alzheimer's disease. Format: cell-based. The conditions noted are these: with 20 µM Aβ1-42, 24 h. The procedure: Determination of AChE activity: the activity of AChE within the cellular Alzheimer Disease's model was measured by the Acetylcholinesterase Assay Kit (Colorimetric) from Abcam^(R) (Cambridge, MA, USA) according to the manufacturer's recommended protocol.
AChE activity was evaluated in differentiated SH-SY5Y cells treated with BLA, LA, MEM (25 and 50 µM) or media alone for 24 h.

The test system of data set [5] is differentiated SH-SY5Y human neuroblastoma cells. Briefly: LDH assay, neuroprotective effects against Aβ1-42 cytotoxicity. The data set is classed as cell-based. The conditions noted are these: with 20 µM Aβ1-42, 24 h. How it is done:
Cell cultures and differentiation: SH-SY5Y cell line were growth in DMEM:F12 (1:1) media including 10% FBS and 1% penicillin/streptomycin at 37 °C and 5% CO2 until cells reach confluence. Then, cells harvested via using trypsin/EDTA solution and transferred to 48 well plates. For differentiation, media were changed to supplemented media with 10 µg/mL retinoic acid and incubated for 5 days. Finally, media were changed into serum free media supplementing with both 10 µM retinoic acid and 25 ng/mL BDNF.
as §2
(§3) Control cells (n = 6) were cultured under normal conditions. 1% Triton X, ascorbic acid (10 µM) and hydrogen peroxide (H2O2, 25 µM) were used as positive controls for cell viability, TAC and TOS analysis, respectively.
The cultures without BLA, MEM, or LA were studied as negative control group. 1% Triton-X was added to the culture media to provide negative control group.

Data set [6] shares this test system. Description: MTT assay, neuroprotective effects against Aβ1-42 cytotoxicity. Particulars: 24 h, read-out: increase in the cell viability (MTT assay). Format: cell-based. How it is done:
Cell cultures and differentiation: SH-SY5Y cell line were growth in DMEM:F12 (1:1) media including 10% FBS and 1% penicillin/streptomycin at 37 °C and 5% CO2 until cells reach confluence. Then, cells harvested via using trypsin/EDTA solution and transferred to 48 well plates. For differentiation, media were changed to supplemented media with 10 µg/mL retinoic acid and incubated for 5 days. Finally, media were changed into serum free media supplementing with both 10 µM retinoic acid and 25 ng/mL BDNF. Differentiated cells were determined under invert microscope and the cells were used within 10 days (Encinas M, Iglesias M, Liu Y, Wang H, Muhaisen A, Ceña V, Gallego C, Comella JX. Sequential treatment of SH-SY5Y cells with retinoic acid and brain-derived neurotrophic factor gives rise to fully differentiated, neurotrophic factor-dependent, human neuron-like cells. J. Neurochem. 2002; 75:991-1003 e Cheung YT, Lau WKW, Yu MS, Lai CSW, Yeung SC, So KF, Chang RCC. Effects of all-trans-retinoic acid on human SH-SY5Y neuroblastoma as in vitro model in neurotoxicity research. Neurotoxicol. 2009; 30:127-135).
as §3
The cultures without BLA, MEM, or LA were studied as negative control group. 1% Triton-X was added to the culture media to provide negative control group. MTT reduction and LDH release observed after 24 h of Aβ1-42-exposure at 20 µM.

A further data set deals with human neuron-like cells. Description: Apoptosis-Necrosis assay (Annexin V-FITC/PI flow cytometry). Format: cell-based. The conditions noted are these: concentration not given. The procedure: Apoptosis-Necrosis assay: the frequencies of viable, apoptotic and necrotic cells were detected with the Annexin V-FITC apoptosis detection Kit I (BD Pharmingen, USA). Briefly, 5 x 10^4 cells were collected by centrifugation and cells resuspended in 500 µL of 1X binding buffer. Then, 5 µL of Annexin V-FITC and 5 µl of propidium iodide (PI 50 µg/ml) were added to the cultures and incubated 5 min in the dark. After that, cells fixed with 4% paraformaldehyde in phosphate buffered saline at 4 °C for 30 min. Cells from each well were stained according to the manufacturer's instructions and analyzed using a flow cytometer (CyFlow Cube 6, Partec, Germany). A computer system was used for data acquisition and analysis. Four different populations of cells are detected with the Annexin V-FITC kit: viable cells that are annexin negative and PI negative and express no fluorescence, early apoptotic cells that are annexin positive and PI negative and that express green fluorescence, late apoptotic/necrotic cells that are annexin positive and PI positive and that express green and orange fluorescence, necrotic cells that are annexin negative and PI positive and that express orange fluorescence (Majstorovic I, Vucevic D, Pavlovic B, Vasilijic S, Colic M. An anti-DEC-205 monoclonal antibody stimulates binding of thymocytes to rat thymic dendritic cells and promotes apoptosis of thymocytes. Cent Eur J Immunol. 2014; 39:411-418) .
BLA was considered as more able to protect the human neuron-like cells from Aβ1-42-induced necrosis and late apoptosis than LA or MEM.
A general note: In flow cytometry, cells or beads pass a laser one at a time.

The subject of data set [7] is cultured human blood cells. Briefly: Nucleic acid oxidation, 8-hydroxy-2'-deoxyguanosine assay. The data set is classed as cell-based.
From the text: as §1
Nucleic acid oxidation: 8-hydroxy-2'-deoxyguanosine assay kits (Cayman Chemical®) was used for determining 8- OH-dG levels in the cultures. It is a competitive assay that can be used for the quantification of 8-OHdG in homogenates and recognizes both free 8-OHdG and DNA-incorporated 8-OH-dG. This assay depends on the competition between 8-OH-dG and 8-OH-dGacetylcholinesterase (AChE) conjugate for a limited amount of 8-OH-dG monoclonal antibody (Abdel-Wahab BA, Metwally ME. Ginkgo biloba enhances the anticonvulsant and neuroprotective effects of sodium valproate against kainic acid-induced seizures in mice. J Pharmacol Toxicol. 2011; 6:679-690). All procedures were carried out in accordance with the provider's manual.
The levels of 8-OH-dG, a sensitive marker of oxidative DNA damage, were quantified about mitomycin (MMC) treatment. […] On the contrary, 8-OH-dG levels were not increased in the blood cells that were treated with BLA, MEM, and LA concentrations.

For data set [8], the system named is differentiated SH-SY5Y cells. Description: TAC and TOS analysis in cellular model of Alzheimer's disease. The data set is classed as cell-based, human. The conditions noted are these: co-treatment with Aβ1-42. How it is done: TAC and TOS analysis: the automated TAC and TOS assays were carried out by commercially available kits (Rel Assay^(R) Diagnostics, Gaziantep, Turkey) on samples from the cultures.
as §3
Figure 5 and 6 show the effects of BLA and MEM treatments on TAC and TOS levels in cellular model of Alzheimer's disease, respectively.

For data set [9] the following is noted: cited from earlier work.

T1 sequence (P22303 32-614): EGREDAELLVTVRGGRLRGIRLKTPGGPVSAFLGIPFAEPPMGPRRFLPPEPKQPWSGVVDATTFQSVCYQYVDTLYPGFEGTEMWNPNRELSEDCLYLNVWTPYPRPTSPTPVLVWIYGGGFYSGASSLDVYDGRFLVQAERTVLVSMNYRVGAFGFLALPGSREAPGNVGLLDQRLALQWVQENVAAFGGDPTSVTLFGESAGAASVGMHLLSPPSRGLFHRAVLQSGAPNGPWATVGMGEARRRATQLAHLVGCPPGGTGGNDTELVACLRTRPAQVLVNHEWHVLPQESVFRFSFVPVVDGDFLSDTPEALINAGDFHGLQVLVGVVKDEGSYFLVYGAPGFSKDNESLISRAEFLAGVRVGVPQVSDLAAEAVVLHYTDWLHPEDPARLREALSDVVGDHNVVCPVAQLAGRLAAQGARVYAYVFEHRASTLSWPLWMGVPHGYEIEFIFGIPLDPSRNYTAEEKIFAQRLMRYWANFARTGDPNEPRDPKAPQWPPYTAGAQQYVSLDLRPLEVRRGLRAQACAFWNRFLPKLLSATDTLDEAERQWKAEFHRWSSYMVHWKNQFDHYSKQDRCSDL

Turning to `CC12CC3CC(C)(C1)CC(N)(C3)C2` [MEM, memantine], the “nuclear integrity and apoptosis by Aβ1-42 (Hoechst 33258)” value in [1] is “protected nuclear integrity and inhibited apoptosis”. For the same compound, in data set [2], the “frequencies of sister chromatid exchanges (SCEs)” value is on record as “not higher than the control group”. Also, the “antitumor effects (growth inhibition)” value in data set [3] is listed as “moderate antitumor effects”. In addition, the “reduced Aβ-induced AChE activity” value in [4] (25 µM) came to 14.57%; in data set [4] (50 µM) it was 19.47%. Besides, the “increase in the cell viability (inhibited LDH release)” value in data set [5] (25 µM) was determined as 56.81%; in data set [5] (50 µM), 59.15%; in [5] (100 µM), 57.28%. Besides, in [6], the viability (commonly a per cent measure of how many cells are alive, often set against a control) at 25 µM worked out at 17.3%. Further, the viability at 50 µM in data set [6] was found to be 19.4%. Besides, in data set [6], the viability at 100 µM is 17.1%. In the data set on human neuron-like cells, the “decreased the necrotic cell percentage by Aβ1-42” value is reported as 65.97%. In addition, the 8-OH-dG levels entry in data set [7] is listed as “not increased”. Also, the “Aβ1-42-induced decreases of TAC and increases of TOS levels” value in [8] is reported as “modulated”.

For the compound `N[C@@H](Cc1ccc(B(O)O)cc1)C(=O)O` [p-borophenyalanine], the “safe for humans at doses up to” value in data set [9] is reported as “up to 900 mg/kg”.

As to `CO[C@@]12[C@H](COC(N)=O)C3=C(C(=O)C(C)=C(N)C3=O)N1C[C@@H]1N[C@@H]12` [MMC, mitomycin], in [7] (10^-7 M, 24 h, positive control), the 8-OH-dG concentrations result is recorded as “significantly increased”.
